These results are taken from publication PMC8162404, “Proteomimetic surface fragments distinguish targets by function” (Chemical Science, 2020).

For the first assay, the target named is T1, Gal-1 (Homo sapiens, UniProt P09382).
T1 construct: made in house; host or cells: E. coli BL21(DE3)
T1 sequence (P09382 whole entry): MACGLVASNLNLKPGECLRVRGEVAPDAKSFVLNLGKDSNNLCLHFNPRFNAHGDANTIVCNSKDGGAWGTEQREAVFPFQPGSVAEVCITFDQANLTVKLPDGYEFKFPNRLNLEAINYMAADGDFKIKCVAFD
In words: Pull-down assay with immobilized protein and LSM libraries. It is filed as binding. To be noted: H12 library; 1:1 binding assumed; read-out: Surface mapping KD (apparent). The protocol: (§1) Pull-down assays with immobilized test proteins and foldameric LSM libraries were carried out. Proteins were equilibrated with LSM probes, and equilibrium bound fractions (FB) were determined from the unbound fractions measured by HPLC-MS methods. Hits were corrected with background binding of the resin. The protocol allowed all binding events to equilibrate irrespective of affinity, specificity, and binding kinetics. This was essential to judge overall druggability and promiscuity. Importantly, the concentration of protein and the total concentration of foldameric LSMs were equimolar, which minimized competition between the probes. This experimental setup approximated independent binding of individual library members. Results were visualized as heat maps of dissociation constants (Fig. 3).
(§2) Pull-down assay and data analysis
(§3) Pull-down assay. LSM sublibraries were screened separately as previously described.(2) Experiments were performed in the following buffers: (i) 20 mM pH 7.4 HEPES, 150 mM NaCl, 5 mM CaCl2 for CaM; (ii) 50 mM pH 7.4 HEPES, 150 mM NaCl, 1 mM TCEP, 1 mM CaCl2 for S100 proteins; (iii) 20 mM pH 7.4 HEPES, 150 mM NaCl, 1 mM TCEP for Gal-1 and (iv) 20 mM pH 7.4 HEPES, 150 mM NaCl for RecQ-WH. Assays were performed in paper filter spin cups (Thermo Scientific) with sample volumes of 100 µl. Hexahistidine-tagged proteins were immobilized on previously washed Co-NTA resin (TALON, Takara Bio USA, Inc., Mountain View, CA) in 64 µM final concentration. LSM sublibrary was added, in which each of the 64 library members were used at a concentration of 1 µM. Samples were incubated at room temperature for 30 min with shaking at 100 rpm. Then, samples were centrifuged at 1000 rpm for 2 min and washed with 100 µl pull-down buffer to remove unbound compounds.
(§4) The control experiments were performed using the same compounds and the resin but without the immobilized protein. In case of competitive assays, competitor peptides were added to LSM sublibrary samples in 200 µM final concentration. In the case of Gal-1, lactose (competitor) was used in a concentration of 10 mM. Experiments were performed at least twice. Mean […]
(§5) LC-MS methods and parameters. HPLC/ESI-MS analysis was used to characterize the samples from the pull-down assay. LC-MS analysis was performed with a Thermo Scientific Dionex UltiMate 3000 HPLC system interfaced to an LTQ ion trap mass spectrometer (Thermo Electron Corp., San Jose, CA, USA). Samples were injected onto an Aeris Widepore XB-C18 (250 x 4.6 mm) analytical HPLC column using gradient elution 5-80 % solution B during 25 minutes. For pull-down samples, eluent composition was 0.1% acetic acid in distilled water (Solution A) and 0.1% acetic acid in acetonitrile (solution B). Mass spectra were acquired in full scan mode from 200 to 2000 m/z range. For overlapping peaks, selective reaction monitoring (SRM) was […]
(§6) MS data analysis. Thermo Xcalibur 2.2 software was used for peak identification and integration. The majority of the foldameric fragments could be resolved independently via HPLC-MS/MS measurements based on molecular weight, MS fragmentation pattern and retention time. Peaks of some foldamers with β3-hIle or β3-hLeu in position R2 could not be resolved, these were integrated and averaged. In the processing method, each sample component was associated to a chromatographic peak based on previously identified mass (m/z) and retention time (ref (2) and Table S7-10). Using ICIS peak detection algorithm, the general detection and integration criteria were: smoothing points: 5, baseline window: 80, area noise factor: 5, peak noise factor: 10. Using these processing setups, all raw data files were reprocessed together and analyzed. Errors in peak identification during the automatic processing were corrected manually.
(§7) Calculation of the discussed parameters
(§8) 1. Bound fractions (FB.) were calculated from the HPLC-MS intensity loss of the LSM probes compared to the control where no protein was immobilized to the resin: […]
In the case of `CC(C)[C@@H](CC(=O)N[C@H]1CCC[C@@H]1C(=O)N[C@H]1CCC[C@@H]1C(=O)N[C@H](CC(=O)N[C@H]1CCC[C@@H]1C(=O)N[C@H]1CCC[C@@H]1C(N)=O)[C@@H](C)O)NC(=O)[C@H]1CCC[C@@H]1NC(=O)[C@H]1CCC[C@@H]1N` [H12 VT], the Kd came out at 432 µM.

Still in this assay, the particulars now being: H14 library; 1:1 binding assumed; read-out: Surface mapping KD (apparent).
With `C[C@@H](CC(=O)N[C@H]1CCCC[C@@H]1C(=O)N[C@H]1CCCC[C@@H]1C(=O)N[C@@H](CC(=O)O)CC(=O)N[C@H]1CCCC[C@@H]1C(N)=O)NC(=O)[C@H]1CCCC[C@@H]1N` [H14 AD], the Kd was determined as 168 µM. `C[C@@H](CC(=O)N[C@H]1CCCC[C@@H]1C(=O)N[C@H]1CCCC[C@@H]1C(=O)N[C@@H](CC(N)=O)CC(=O)N[C@H]1CCCC[C@@H]1C(N)=O)NC(=O)[C@H]1CCCC[C@@H]1N` [H14 AN]: the Kd came out at 303 µM. The same measure, in the same setting: the figure for `CSCC[C@@H](CC(=O)N[C@H]1CCCC[C@@H]1C(=O)N[C@H]1CCCC[C@@H]1C(=O)N[C@@H](CCC(=O)O)CC(=O)N[C@H]1CCCC[C@@H]1C(N)=O)NC(=O)[C@H]1CCCC[C@@H]1N` [H14 ME] is 250 µM.

The target of another assay is T2, S100B (Homo sapiens, UniProt P04271).
T2 construct: made in house; host or cells: Escherichia coli BL21(DE3)
T2 sequence (P04271 1-92): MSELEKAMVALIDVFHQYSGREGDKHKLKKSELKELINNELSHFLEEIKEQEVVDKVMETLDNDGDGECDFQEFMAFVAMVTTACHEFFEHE
The description is as above. It is filed as binding. Particulars: H12 library; 1:1 binding assumed; read-out: Surface mapping KD (apparent). The protocol: as §1, §2, §3, §4, §5, §6, §7, §8
`C[C@@H](CC(=O)N[C@H]1CCC[C@@H]1C(=O)N[C@H]1CCC[C@@H]1C(=O)N[C@@H](CCCNC(=N)N)CC(=O)N[C@H]1CCC[C@@H]1C(=O)N[C@H]1CCC[C@@H]1C(N)=O)NC(=O)[C@H]1CCC[C@@H]1NC(=O)[C@H]1CCC[C@@H]1N` [H12 AR]: the Kd was 219 µM. Same read-out and setting: for `CC[C@H](C)[C@@H](CC(=O)N[C@H]1CCC[C@@H]1C(=O)N[C@H]1CCC[C@@H]1C(=O)N[C@@H](CCCCN)CC(=O)N[C@H]1CCC[C@@H]1C(=O)N[C@H]1CCC[C@@H]1C(N)=O)NC(=O)[C@H]1CCC[C@@H]1NC(=O)[C@H]1CCC[C@@H]1N` [H12 IK] the value was 87 µM; for `CC[C@H](C)[C@@H](CC(=O)N[C@H]1CCC[C@@H]1C(=O)N[C@H]1CCC[C@@H]1C(=O)N[C@H](CC(=O)N[C@H]1CCC[C@@H]1C(=O)N[C@H]1CCC[C@@H]1C(N)=O)[C@@H](C)O)NC(=O)[C@H]1CCC[C@@H]1NC(=O)[C@H]1CCC[C@@H]1N` [H12 IT], 216 µM. Same read-out and setting: for `C[C@@H](CC(=O)N[C@H]1CCC[C@@H]1C(=O)N[C@H]1CCC[C@@H]1C(N)=O)NC(=O)[C@H]1CCC[C@@H]1NC(=O)[C@H]1CCC[C@@H]1NC(=O)C[C@H](CCCCN)NC(=O)[C@H]1CCC[C@@H]1NC(=O)[C@H]1CCC[C@@H]1N` [H12 KA] the value was 243 µM; for `NCCCC[C@@H](CC(=O)N[C@H]1CCC[C@@H]1C(=O)N[C@H]1CCC[C@@H]1C(=O)N[C@@H](CC(N)=O)CC(=O)N[C@H]1CCC[C@@H]1C(=O)N[C@H]1CCC[C@@H]1C(N)=O)NC(=O)[C@H]1CCC[C@@H]1NC(=O)[C@H]1CCC[C@@H]1N` [H12 KN], 274 µM; for `C[C@@H](O)[C@@H](CC(=O)N[C@H]1CCC[C@@H]1C(=O)N[C@H]1CCC[C@@H]1C(N)=O)NC(=O)[C@H]1CCC[C@@H]1NC(=O)[C@H]1CCC[C@@H]1NC(=O)C[C@H](CCCCN)NC(=O)[C@H]1CCC[C@@H]1NC(=O)[C@H]1CCC[C@@H]1N` [H12 KT], 226 µM. Turning to `CC(C)C[C@@H](CC(=O)N[C@H]1CCC[C@@H]1C(=O)N[C@H]1CCC[C@@H]1C(=O)N[C@@H](CO)CC(=O)N[C@H]1CCC[C@@H]1C(=O)N[C@H]1CCC[C@@H]1C(N)=O)NC(=O)[C@H]1CCC[C@@H]1NC(=O)[C@H]1CCC[C@@H]1N` [H12 LS], the Kd turned out to be 258 µM. With `CC(C)C[C@@H](CC(=O)N[C@H]1CCC[C@@H]1C(=O)N[C@H]1CCC[C@@H]1C(=O)N[C@H](CC(=O)N[C@H]1CCC[C@@H]1C(=O)N[C@H]1CCC[C@@H]1C(N)=O)[C@@H](C)O)NC(=O)[C@H]1CCC[C@@H]1NC(=O)[C@H]1CCC[C@@H]1N` [H12 LT], the Kd was found to be 216 µM. Regarding `N=C(N)NCCC[C@@H](CC(=O)N[C@H]1CCC[C@@H]1C(=O)N[C@H]1CCC[C@@H]1C(=O)N[C@@H](CC(N)=O)CC(=O)N[C@H]1CCC[C@@H]1C(=O)N[C@H]1CCC[C@@H]1C(N)=O)NC(=O)[C@H]1CCC[C@@H]1NC(=O)[C@H]1CCC[C@@H]1N` [H12 RN], the Kd was 217 µM.
